Data: BindingDB's records for doi:10.7270/Q2M0441T (Dalhousie University, 1989)

Each compound was assayed against T1, Phosphatidylcholine-sterol acyltransferase (Homo sapiens, UniProt P04180) (assay: Enzyme Assay). Conditions: pH 7.5; 4 °C.
T1 sequence (P04180 whole entry): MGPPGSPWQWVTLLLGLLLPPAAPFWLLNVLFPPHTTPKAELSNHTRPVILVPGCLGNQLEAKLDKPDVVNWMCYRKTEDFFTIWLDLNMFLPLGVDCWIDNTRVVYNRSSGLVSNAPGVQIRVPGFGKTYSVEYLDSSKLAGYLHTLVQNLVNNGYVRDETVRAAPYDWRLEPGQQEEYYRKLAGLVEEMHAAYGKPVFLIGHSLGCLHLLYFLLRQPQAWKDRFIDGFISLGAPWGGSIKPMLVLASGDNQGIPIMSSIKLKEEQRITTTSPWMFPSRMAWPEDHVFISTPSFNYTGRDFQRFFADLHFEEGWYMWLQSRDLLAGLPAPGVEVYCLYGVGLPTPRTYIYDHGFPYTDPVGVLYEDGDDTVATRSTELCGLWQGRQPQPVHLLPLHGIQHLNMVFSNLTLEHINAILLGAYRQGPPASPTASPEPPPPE
Experimental: The phospholipase A2 activity of LCAT was assayed using lecithin and apoA-I containing [9,10-3H] dipalmitoylphosphatidylcholine (DPPC) and measurement of the radioactive fatty acid released from the sn-2-position.

Row | IC50 [µM] | SMILES
1 | > 0.5 | CCCCCCCC(=O)C(F)(F)CCOP(=O)([O-])OCC[N+](C)(C)C [Difluoroketone phospholipid analogue, 1]
2 | 0.06 | CCCCCCCCOCC(COP(=O)([O-])OCC[N+](C)(C)C)C(F)(F)C(=O)CCCCCCC (centres undefined) [Difluoroketone phospholipid analogue, 2]
3 | 0.028 | CCCCCCCCCCCCCCCCC(=O)C(F)(F)C(COCCCCCCCC)COP(=O)([O-])OCC[N+](C)(C)C (centres undefined) [Difluoroketone phospholipid analogue, 3]
4 | 0.06 | CCCCCCCC(=O)OCC(COP(=O)([O-])OCC[N+](C)(C)C)CC(=O)C(F)(F)CCCCCC (centres undefined) [Difluoroketone phospholipid analogue, 4]
